Where “and” joins values, the source holds several entries; their conditions need not be identical. Equal entries are not always repeated. Where two headings read alike, the source gives them in different places.

We go through eight compounds from US6939303B2, “Method and system of determining cardiac contractility” (Provecto Tecnico R-2000, Ca, priority 1999, dated 2005).

For assay [1], the system named is normal subjects. The experiment in a line: Cardiac contractility with methoxamine and dobutamine, echocardiographic data of Borow et al. (Example 4). In kind it is in vivo, human. As to conditions: ten normal subjects. How it is done: (§1) The capability of the method of the present invention to assess cardiac contractility was evaluated using data from several experiments published in the literature and suitable for analysis. In this approach, afterload in the method was expressed as systolic pressure. Since different methodologies to measure cardiac contractility were used, the comparison between them was attained by analyzing the amount of changes (delta values) and were statistically treated using paired t test, ANOVA, correlation, and agreement between methods when applicable, as, for example, described in Lancet, Vol. 1, pages 307 to 310 (1986) by Bland et al.
Cardiovascular data was utilized from “Sensitivity of End-Systolic Pressure-Dimension and Pressure-Volume Relations to the Inotropic State in Humans,” Circulation, Vol. 65, pages 988 to 997 (1982) by Borow et al. Ten normal subjects were studied echocardiographically.

The subject of assay [2] is patients with coronary artery disease. The experiment in a line: Cardiac contractility with methoxamine and nitrates, data of Mehmel et al. (Example 6). In kind it is in vivo, human. The conditions noted are these: load modifications. As to the method:
as §1
Cardiovascular data was utilized from “The Linearity of the End-Systolic Pressure-Volume Relationship in Man and its Sensitivity for Assessment of Left Ventricular Function,” Circulation, Vol. 63, pages 1216 to 1222 (1981) by Mehmel et al. This study was performed in patients with coronary artery disease and with catheter-tip manometer and ventricular angiogram measurements.

Assay [3] concerns normal subjects. The conditions noted are these: ten normal subjects; cited from earlier work.
Assay [4] relates to patients with coronary artery disease. As to conditions: load modifications; cited from earlier work.
The test system of assay [5] is patients, most of them with coronary artery disease. The assay is described as follows: Cardiac contractility under load or inotropic drugs, data of Takeuchi et al. (Examples 1 and 3). In kind it is in vivo, human. As to conditions: for Alteration in cardiac contractility, method of this invention: change vs control. Further details: key to C, cardiac contractility calculated with the method of this invention: relative contractility scale; control state C = 100. As to the method:
as §1
Hemodynamic data was utilized from Takeuchi et al. (“Single-Beat Estimation of the Slope of the End-Systolic Pressure-Volume Relation in the Human Left Ventricle”. Circulation, Vol. 83, pages 202 to 212 (1991)).
Initially, to calibrate the model of the method of this invention, the average normal (or control state) values were used: • Preload (end-diastolic volume)=70 (Pre_adj) • Afterload (Systolic pressure)=109 (After_adj) • Stroke volume (SV)=40 (SV_adj) • Cardiac contractility (C)=100 (C_adj) Thereafter, the C value in each case during angiotension infusion was calculated using its corresponding value of preload, afterload and stroke volume. For instance, for the first case receiving angiotenison, where:
The first step was to obtain the edge value for the tetrahedron for the control state using the standard mathematical equation for the volume of a tetrahedron: Edge=^3{overscore (6*sv—adj)} Therefore, for the control state, Edge=^3{overscore (6*40)}=6.214465 The next step was to obtain the unitary (u) values of preload (pre_u) and afterload (after_u).
Pre—u=68*(6.214465/70)=6.036908 [formula] In order to obtain the unitary (u) value of C, using the equation derived herein for cardiac contractility [formula] Therefore, the value of C (C_v) for Case 1 is: [formula] Thus, during angiotensin treatment, the corresponding C values for Cases 1 to 8 were calculated using the method of this invention to be as follows: […]
Cardiovascular data was utilized from “Single-beat Estimation of the Slope of the End-Systolic Pressure-Volume Relation in the Human Left Ventricle,” Circulation, Vol. 83, pages 202 to 212 (1991) by Takeuchi et al. This study involved 25 patients, most of them with coronary artery disease. […] Hemodynamic modifications were measured with high-fidelity micromanometer and ventriculography. […] The increase in cardiac contractility using dobutamine induced changes measured by the method of this invention was 23% in comparison to the measurements made with ejection fraction of 15% and with ESP/ESV of 32%.

Assay [6] has the same test system. Further details: After_v, afterload (systolic pressure): unit not given beside the values. As to conditions: cited from earlier work; for Alteration in cardiac contractility, ESP/ESV / Alteration in cardiac contractility, ejection fraction: change vs control.
Assay [7] relates to normal subjects and patients with coronary artery disease. The experiment in a line: Cardiac contractility with phenylephrine, data of El-Tobgi et al. (Example 5). In kind it is in vivo, human. As to the method: as §1
Cardiovascular data was utilized from “Left Ventricular Function in Coronary Artery Disease,” J. Am. Coll. Cardiol., Vol. 3, pages 781 to 788 (1984) by El-Tobgi et al. In this study, normal subjects (group I) were compared with two groups of patients with coronary artery disease (groups II and III, the last one with ventricular dysfunction) and studied with tip-manometer catheter and ventriculography measurements. In basal conditions, the method of this invention behaves similar to the ejection fraction in detecting depression in cardiac contractility in group III (−17.2% and −18.0%, respectively).

Assay [8] deals with Conscious Dog. The experiment in a line: Changes in preload, afterload and inotropic state, data of Mahler et al. (Example 13). The conditions noted are these: for Method of This Invention Avg. Value: Example 13, animals, control 100.0; for Change, method of the present invention: conscious dog. The format is in vivo. How it is done: as §1
Cardiovascular data was utilized from “Effects of Changes in Preload, Afterload and Inotropic State on Ejection and Isovolumic Phase Measures of Contractility in the Conscious Dog,” Am. J. Cardiol., Vol. 35, pages 623 to 634 (1975) by Mahler et al. In this study, increase in preload was attained by Ringer's solution infusion, and rise of blood pressure with phenylephrine administration. […] The method of this invention was less sensitive than the other indices to measure changes in the inotropic state induced with isoproterenol or propranolol.

In assay [9] the test system is normal subjects and patients with coronary artery disease. As to conditions: cited from earlier work.
For assay [10], the system named is Conscious Dog. As to conditions: cited from earlier work; for Vcf Avg. Value (velocity of shortening) / dP/dT Avg. Value: Example 13, animals; for Change, Vcf / Change, dP/dt / Change, dP/dt DP40: conscious dog.
In assay [11] the test system is Conscious Dogs. The experiment in a line: Contractile state with dobutamine and verapamil, data of Little et al. (Example 12). As to conditions: for Method of This Invention Avg. Value: Example 12, animals, control 100.0; for Change in contractile state, method of this invention: dogs. In kind it is in vivo, dog. How it is done: as §1
Cardiovascular data was utilized from “Response of the Left Ventricular End-Systolic Pressure-Volume Relation in Conscious Dogs to a Wide Range of Contractile States,” Circulation, Vol. 78, pages 736 to 745 (1988) by Little et al. In this study, the contractile state was increased by dobutamine and decreased by verapamil.

In assay [12] the test system is Conscious Dogs. The conditions noted are these: cited from earlier work; for ESP/ESV Avg. Value / EF Avg. Value: Example 12, animals; for EF Avg. Value: ejection fraction; for Change in contractile state, ESP/ESV / Change in contractile state, dP/dt / Change in contractile state, ejection fraction: dogs.
Setting [13] is: group I (normal subjects), increase in blood pressure with phenylephrine.
Setting [14] is: group III (coronary artery disease with ventricular dysfunction), with the increase in blood pressure.

As to `COc1ccc(OC)c(C(O)C(C)N)c1` (stereo not shown) [Methoxamine, methoxamine], the figures for the “Change in cardiac contractility, method of this invention” value in [1] and in [2] were 1.4% and 3.3%, respectively. The “Change in cardiac contractility, ejection fraction” value in assay [3] was −10.4%. For the same compound, the “Change measured using ejection fraction” value in assay [4] is −5.0%.

Consider `O=[N+]([O-])O` [Nitrate], for which the “Change in cardiac contractility, method of this invention” value in [2] is listed as −1.7%. For the same compound, the “Change measured using ejection fraction” value in assay [4] was 5.0%.

For angiotensin, the “Alteration in cardiac contractility, method of this invention” value (“Alteration … of this invention” for short) in assay [5] is given as 0.4%. The “C, cardiac contractility calculated with the method of this invention” value in assay [5] (individual cases 1 to 8 during angiotensin treatment, one line per case, control state C=100) was 115.24 and 63.33 and 95.99 and 88.76 and 100.71 and 116.54 and 73.04 and 117.72. Moreover, in [6], the “Alteration in cardiac contractility, ESP/ESV” value (“Alteration … ESP/ESV” for short) is 9.1% and the “Alteration in cardiac contractility, ejection fraction” value (“Alteration … ejection fraction” for short) is on record as −10.3%. In addition, the “SV_v, stroke volume” value in [6] (individual cases 1 to 8 receiving angiotensin, one line per case, control mean 40) is 41 and 38 and 30 and 34 and 40 and 50 and 36 and 60. Moreover, the “Pre_v, preload (end-diastolic volume)” value in [6] (individual cases 1 to 8 receiving angiotensin, one line per case, control mean 70) was 68 and 119 and 66 and 78 and 79 and 82 and 95 and 93. Moreover, the “After_v, afterload (systolic pressure)” value in assay [6] (individual cases 1 to 8 receiving angiotensin, one line per case, control mean 109) was 142 (2×) and 155 and 176 and 164 and 156 and 145 and 125.

Consider `CNC[C@H](O)c1cccc(O)c1` [Phenylephrine, phenylephrine], for which, in assay [7] (Example 5, CAD), the “Method of This Invention Avg. Value” worked out at 107.3. Also, the “Method of This Invention Avg. Value” in assay [7] (Example 5, CAD + VD) amounted to 84.2. For the same compound, the “Method of This Invention Avg. Value” in [7] (Example 5, Healthy) turned out to be 110.4. In assay [7] (setting [13]), the “Change in cardiac contractility, method of the present invention” value stood at 10.4%. In addition, in assay [7] (setting [14]), the “Fall in cardiac contractility, method of this invention” value is on record as −15.8%. In addition, in [8], the “Method of This Invention Avg. Value” is 100.8 and the “Change, method of the present invention” value is 0.8%. Further, in [9] (Example 5, CAD + VD), the “EF Avg. Value” is 50.5 percentage and the “ESP/ESV Avg. Value” is 5.0 mm Hg per ml. Besides, in assay [9] (Example 5, CAD), the “EF Avg. Value” is given as 64.0 percentage and the “ESP/ESV Avg. Value” is on record as 9.9 mm Hg per ml. In [9] (Example 5, Healthy), the “EF Avg. Value” is 67.5 percentage and the “ESP/ESV Avg. Value” is given as 10.4 mm Hg per ml. Besides, the “Change in ejection fraction” value in assay [9] (setting [13]) is reported as −0.1%. For the same compound, in [9] (setting [14]), the “Fall in ESP/ESV” value was −51.9% and the “Fall in ejection fraction” value was −25.3%. In assay [10], the “Vcf Avg. Value (velocity of shortening)” value was 1.61 circulation per second; the “dP/dT Avg. Value” is given as 3670 mm Hg per second; the “Change, Vcf” value is on record as −26%; the “Change, dP/dt” value is −2%. For the same compound, in [10], the “Change, dP/dt DP40” value is on record as 2%.

On to `CC(CCc1ccc(O)cc1)NCCc1ccc(O)c(O)c1` (stereo not shown) [Dobutamine, dobutamine], for which the “Alteration … of this invention” value in assay [5] is recorded as 23%. Further, the “Change in cardiac contractility, method of this invention” value in assay [1] amounted to 27.5%. In addition, in assay [11], the “Method of This Invention Avg. Value” is listed as 111.7 and the “Change in contractile state, method of this invention” value is reported as 11.7%. In assay [6], the “Alteration … ESP/ESV” value is 32% and the “Alteration … ejection fraction” value is reported as 15%. In assay [3], the “Change in cardiac contractility, ESP/ESV” value is 57.6% and the “Change in cardiac contractility, ejection fraction” value is reported as 12.8%. Further, in assay [12], the “ESP/ESV Avg. Value” is listed as 18.5 mm Hg per ml; the “EF Avg. Value” is recorded as 54.8 percentage; the “Change in contractile state, ESP/ESV” value is on record as 150%; the “Change in contractile state, dP/dt” value is given as 34.1%. The “Change in contractile state, ejection fraction” value in [12] was 17.1%.

For the compound `COc1ccc(CCN(C)CCCC(C#N)(c2ccc(OC)c(OC)c2)C(C)C)cc1OC` (stereo not shown) [Verapamil, verapamil], in assay [11], the “Method of This Invention Avg. Value” is reported as 77.1 and the “Change in contractile state, method of this invention” value is recorded as −23%. Besides, in assay [12], the “ESP/ESV Avg. Value” is recorded as 5.1 mm Hg per ml; the “EF Avg. Value” is 39.2 percentage; the “Change in contractile state, ESP/ESV” value is recorded as −38.5%; the “Change in contractile state, dP/dt” value is recorded as −39.9%. For the same compound, the “Change in contractile state, ejection fraction” value in assay [12] is on record as −10.9%.

Take `O=[N+]([O-])OCC(CO[N+](=O)[O-])O[N+](=O)[O-]` [Nitroglycerin, nitroglycerin]: the “Alteration … of this invention” value in [5] is reported as −4%. Also, in [6], the “Alteration … ESP/ESV” value was 9% and the “Alteration … ejection fraction” value is listed as 8.3%.

Consider `CC(C)NCC(O)c1ccc(O)c(O)c1` (stereo not shown) [Isoproterenol, isoproterenol], for which, in assay [8], the “Method of This Invention Avg. Value” is 120.3 and the “Change, method of the present invention” value turned out to be 20.3%. For the same compound, in assay [10], the “Vcf Avg. Value (velocity of shortening)” value was 2.83 circulation per second; the “dP/dT Avg. Value” was 5430 mm Hg per second; the “Change, Vcf” value was 53%; the “Change, dP/dt” value is listed as 55%. The “Change, dP/dt DP40” value in assay [10] was 56%.
